Data as given in ChEMBL document CHEMBL4823304, “Phytochemicals from the flowers of Prunus persica (L.) Batsch: Anti-adipogenic effect of mandelamide on 3T3-L1 preadipocytes” (Bioorg Med Chem Lett, 2021).
The source made the active and inactive calls. The calls are words filed in the database; no cut-off is given here.

What was measured:
3T3-L1 [1] = assay: Cytotoxicity against in mouse 3T3-L1 cells assessed as reduction in cell viability at 100 uM incubated for 24 hrs by MTT assay relative to control; assay type: cell-based; details: 3t3-l1, 24 h
3T3-L1 [2] = assay: Inhibition of preadipocyte differentiation in mouse 3T3-L1 cells assessed as lipid droplet accumulation at 100 uM incubated for 8 days by Oil Red O staining method relative to untreated control; assay type: functional
3T3-L1 [3] = assay: Anti-adipogenic activity against mouse 3T3-L1 cells assessed as decrease in ERK protein expression measured after 8 days by Western blotting analysis relative to control; assay type: functional, cell-based; details: time 8.0 day
3T3-L1 [4] = assay: Anti-adipogenic activity against mouse 3T3-L1 cells assessed as decrease in C/EBPbeta protein expression measured after 8 days by Western blotting analysis relative to control; assay type: functional, cell-based; details: time 8.0 day
3T3-L1 [5] = assay: Inhibition of preadipocyte differentiation in mouse 3T3-L1 cells assessed as lipid droplet accumulation incubated for 8 days by Oil Red O staining method relative to untreated control; assay type: functional, cell-based; details: 3T3-L1, 192 h
3T3-L1 [6] = assay: Anti-adipogenic activity against mouse 3T3-L1 cells assessed as decrease in PPARgamma protein expression measured after 8 days by Western blotting analysis relative to control; assay type: functional, cell-based; details: time 8.0 day
3T3-L1 [7] = assay: Anti-adipogenic activity against mouse 3T3-L1 cells assessed as decrease in JNK protein expression measured after 8 days by Western blotting analysis relative to control; assay type: functional, cell-based; details: time 8.0 day
3T3-L1 [8] = assay: Anti-adipogenic activity against mouse 3T3-L1 cells assessed as decrease in p-JNK protein expression measured after 8 days by Western blotting analysis relative to control; assay type: functional, cell-based; details: time 8.0 day
3T3-L1 [9] = assay: Anti-adipogenic activity against mouse 3T3-L1 cells assessed as decrease in p-ERK protein expression measured after 8 days by Western blotting analysis relative to control; assay type: functional, cell-based; details: time 8.0 day
3T3-L1 [10] = assay: Anti-adipogenic activity against mouse 3T3-L1 cells assessed as decrease in p-P38 protein expression measured after 8 days by Western blotting analysis relative to control; assay type: functional, cell-based; details: time 8.0 day
3T3-L1 [11] = assay: Anti-adipogenic activity against mouse 3T3-L1 cells assessed as decrease in GR protein expression measured after 8 days by Western blotting analysis relative to control; assay type: functional, cell-based; details: time 8.0 day
3T3-L1 [12] = assay: Anti-adipogenic activity against mouse 3T3-L1 cells assessed as decrease in C/EBPalpha protein expression measured after 8 days by Western blotting analysis relative to control; assay type: functional, cell-based; details: time 8.0 day
3T3-L1 [13] = assay: Anti-adipogenic activity against mouse 3T3-L1 cells assessed as decrease in P38 protein expression measured after 8 days by Western blotting analysis relative to control; assay type: functional, cell-based; details: time 8.0 day

| Structure (SMILES) | Activity (3T3-L1 [1]) | Activity (3T3-L1 [2]; time 8.0 day) | Activity (3T3-L1 [2]; time 8 day) [%] | other results |
| --- | --- | --- | --- | --- |
| C[C@@H]1O[C@@H](OC[C@H]2O[C@@H](Oc3c(-c4ccc(O)cc4)oc4cc(O)cc(O)c4c3=O)[C@H](O)[C@@H](O)[C@@H]2O)[C@H](O)[C@H](O)[C@H]1O [NICOTIFLOROSIDE] | Non-Toxic | Active | – | – |
| O=c1c(O[C@@H]2O[C@H](CO)[C@@H](O)[C@H](O)[C@H]2O)c(-c2ccc(O)cc2)oc2cc(O)cc(O)c12 [ASTRAGALIN] | Non-Toxic | Active | – | – |
| NC(=O)[C@H](O[C@@H]1O[C@H](CO[C@@H]2O[C@H](CO)[C@@H](O)[C@H](O)[C@H]2O)[C@@H](O)[C@H](O)[C@H]1O)c1ccccc1 | Non-Toxic | Active | – | – |
| COc1cc(/C=C/C(=O)O)ccc1O [FERULATE] | Non-Toxic | – | 58.22 | – |
| O=C1C[C@@H](c2ccc(O)cc2)Oc2cc(O[C@@H]3O[C@H](CO)[C@@H](O)[C@H](O)[C@H]3O)cc(O)c21 [PRUNIN] | Non-Toxic | Active | – | – |
| O=C1C[C@@H](c2ccc(O)cc2)Oc2cc(O)cc(O)c21 [NARINGENIN] | Non-Toxic | – | 44.21 | – |
| C[C@@H]1O[C@@H](Oc2c(-c3ccc(O)cc3)oc3cc(O)cc(O)c3c2=O)[C@H](O)[C@H](O)[C@H]1O [AFZELIN] | Non-Toxic | Active | – | – |
| O=c1ccn([C@@H]2O[C@H](CO)[C@@H](O)[C@H]2O)c(=O)[nH]1 [URIDINE] | Non-Toxic | Active | – | – |
| O=C(O)[C@H](O[C@@H]1O[C@H](CO)[C@@H](O)[C@H](O)[C@H]1O)c1ccccc1 | Non-Toxic | Active | – | – |
| NC(=O)[C@H](O[C@@H]1O[C@H](CO)[C@@H](O)[C@H](O)[C@H]1O)c1ccccc1 | Non-Toxic | Active | – | – |
| O=C(/C=C/c1ccc(O)c(O)c1)O[C@@H]1C[C@](O)(C(=O)O)C[C@@H](O)[C@H]1O [CHLOROGENIC ACID] | Non-Toxic | – | 58.44 | – |
| NC(=O)[C@H](O)c1ccccc1 | Non-Toxic | – | 12.23 | Activity (3T3-L1 [3]): Dose-Dependent Effect; Activity (3T3-L1 [4]): Dose-Dependent Effect; IC50 (3T3-L1 [5]): 36 µM; Activity (3T3-L1 [6]): Dose-Dependent Effect; Activity (3T3-L1 [7]): Dose-Dependent Effect; Activity (3T3-L1 [8]): Dose-Dependent Effect; Activity (3T3-L1 [9]): Dose-Dependent Effect; Activity (3T3-L1 [10]): Dose-Dependent Effect; Activity (3T3-L1 [11]): Dose-Dependent Effect; Activity (3T3-L1 [12]): Dose-Dependent Effect; Activity (3T3-L1 [13]): Dose-Dependent Effect |
| O[C@@H]1[C@@H](O)[C@H](OCc2ccccc2)O[C@H](CO[C@H]2OC[C@H](O)[C@@H](O)[C@@H]2O)[C@H]1O | Non-Toxic | Active | – | – |
| COC(=O)/C=C/c1ccc(O)c(O)c1 [METHYLCAFFEATE] | Non-Toxic | – | 34.67 | – |
